Measured values published in patent US20250084056A1, “SUBSTITUTED OXOISOINDOLINYL PIPERIDINE-2,6-DIONE COMPOUNDS” (BRISTOL-MYERS SQUIBB COMPANY, priority 2023, published 2025).

What was measured:
Assay type in all cases: cell-based
[1] = tested on: Phospho-Rb (Ser807/811); assay: Phospho-Retinoblastoma (pRB) Cellular Assay; conditions: Homo sapiens, OVCAR-3, NIH OVCAR3 cells, 24 hours; for IC50: concentration giving 50% response; for Emax: maximum response, reference compound at 10 μM = 100%, read-out: pRB Ymax
Summary of the method: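 OVCAR3 cells seeded overnight, then dosed with serial dilutions for 24 h at 37° C. Lysed with kit mix plus phosphatase inhibitor, ≥4 h at room temperature, read on EnVision; 100% response set by reference compound at 10 μM, giving IC50 and Ymax.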

[2] = molecular target: GSPT1 (Homo sapiens, UniProt P15170+Q96SW2); assay: GSPT1 Cellular Degradation Assay (DF15-GSPT1-ePL); set-up: expressed in transfected cells; conditions: DF15-GSPT1-ePL cells, 20 hours
Summary of the method: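 Human DF15 cells co-expressing a GSPT1–ePL fusion were treated with compound in RPMI 1640/10% FBS for 20 h at 37 °C. GSPT1 level was read by enzyme-fragment-complementation luminescence after 60 min with detection reagent. The reference degrader at […] defined 75% response; DC50 and Dmax were reported.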

[3] = molecular target: Cyclin E1 (Homo sapiens, UniProt P24864+Q96SW2); assay: Cyclin E1 Cellular Degradation Assay (MSD); set-up: endogenous in cells; host or cells: OVCAR3; conditions: for DC50 / Dmax: Cyclin E1 cellular degradation; for Dmax: maximum degradation; for Ratio of GSPT1 DC50/Cyclin E1 DC50: selectivity for degradation of Cyclin E1 over GSPT1
Summary of the method: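 OVCAR3 cells treated with compound for 24 h at 37 °C, lysed, and cyclin E1 measured by MSD sandwich immunoassay (rabbit capture, mouse detection anti-CCNE1). Reference degrader at […] defined 110% response; DC50 and Dmax derived from response.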

Sequence of Cyclin E1 (P24864 whole entry): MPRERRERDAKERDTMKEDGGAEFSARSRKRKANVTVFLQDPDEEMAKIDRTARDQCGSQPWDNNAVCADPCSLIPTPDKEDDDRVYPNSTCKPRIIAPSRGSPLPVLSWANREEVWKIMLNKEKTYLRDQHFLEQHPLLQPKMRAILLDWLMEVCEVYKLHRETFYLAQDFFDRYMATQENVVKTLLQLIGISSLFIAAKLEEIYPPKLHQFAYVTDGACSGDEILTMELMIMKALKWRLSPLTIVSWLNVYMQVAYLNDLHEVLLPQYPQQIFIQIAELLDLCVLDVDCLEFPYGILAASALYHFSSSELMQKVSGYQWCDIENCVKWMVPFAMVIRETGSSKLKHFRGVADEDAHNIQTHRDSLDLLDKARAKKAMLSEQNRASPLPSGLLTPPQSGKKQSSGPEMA
Sequence of Cyclin E1 (Q96SW2 whole entry): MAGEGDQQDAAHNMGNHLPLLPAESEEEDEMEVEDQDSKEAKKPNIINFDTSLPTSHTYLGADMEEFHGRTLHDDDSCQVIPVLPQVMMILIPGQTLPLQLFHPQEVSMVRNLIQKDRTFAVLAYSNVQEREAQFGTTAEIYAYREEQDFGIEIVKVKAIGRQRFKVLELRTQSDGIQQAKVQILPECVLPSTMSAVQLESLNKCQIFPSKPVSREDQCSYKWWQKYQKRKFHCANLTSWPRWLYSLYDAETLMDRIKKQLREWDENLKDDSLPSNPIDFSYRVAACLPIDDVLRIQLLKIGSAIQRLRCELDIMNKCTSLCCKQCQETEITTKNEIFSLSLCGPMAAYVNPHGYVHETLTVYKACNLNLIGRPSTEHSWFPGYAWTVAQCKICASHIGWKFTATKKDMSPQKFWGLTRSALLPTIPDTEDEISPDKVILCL
Sequence of Cyclin E1 (Q16531 whole entry partner): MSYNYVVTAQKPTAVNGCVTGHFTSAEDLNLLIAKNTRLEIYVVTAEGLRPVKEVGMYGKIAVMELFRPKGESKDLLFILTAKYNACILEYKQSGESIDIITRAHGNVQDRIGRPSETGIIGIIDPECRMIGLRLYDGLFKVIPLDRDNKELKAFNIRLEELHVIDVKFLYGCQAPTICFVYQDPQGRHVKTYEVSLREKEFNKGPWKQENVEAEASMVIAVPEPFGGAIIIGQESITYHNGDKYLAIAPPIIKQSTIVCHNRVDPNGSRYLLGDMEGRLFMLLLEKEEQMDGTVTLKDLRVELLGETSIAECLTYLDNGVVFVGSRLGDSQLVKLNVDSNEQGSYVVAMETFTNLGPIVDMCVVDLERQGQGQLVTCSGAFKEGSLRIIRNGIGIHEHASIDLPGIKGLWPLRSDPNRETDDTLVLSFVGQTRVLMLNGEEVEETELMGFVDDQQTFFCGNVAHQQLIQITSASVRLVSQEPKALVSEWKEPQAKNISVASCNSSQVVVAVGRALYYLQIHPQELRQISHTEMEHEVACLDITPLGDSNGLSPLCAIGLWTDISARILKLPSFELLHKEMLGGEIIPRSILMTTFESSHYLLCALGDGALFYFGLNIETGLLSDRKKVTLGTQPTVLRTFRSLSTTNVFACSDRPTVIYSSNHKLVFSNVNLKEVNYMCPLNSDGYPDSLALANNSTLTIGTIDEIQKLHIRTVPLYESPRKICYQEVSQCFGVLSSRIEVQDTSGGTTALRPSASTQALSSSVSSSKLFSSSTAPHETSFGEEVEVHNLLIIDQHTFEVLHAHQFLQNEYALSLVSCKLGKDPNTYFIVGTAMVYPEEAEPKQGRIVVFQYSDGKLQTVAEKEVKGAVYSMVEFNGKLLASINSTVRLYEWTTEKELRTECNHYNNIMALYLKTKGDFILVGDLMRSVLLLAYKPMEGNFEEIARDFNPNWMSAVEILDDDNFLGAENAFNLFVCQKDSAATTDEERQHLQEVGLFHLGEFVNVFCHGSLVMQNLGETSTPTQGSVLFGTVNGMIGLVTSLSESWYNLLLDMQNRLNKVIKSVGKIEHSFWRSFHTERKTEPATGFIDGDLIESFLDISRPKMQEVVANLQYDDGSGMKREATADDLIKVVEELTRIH
Sequence of GSPT1 (P15170 whole entry, the tested form may be a part): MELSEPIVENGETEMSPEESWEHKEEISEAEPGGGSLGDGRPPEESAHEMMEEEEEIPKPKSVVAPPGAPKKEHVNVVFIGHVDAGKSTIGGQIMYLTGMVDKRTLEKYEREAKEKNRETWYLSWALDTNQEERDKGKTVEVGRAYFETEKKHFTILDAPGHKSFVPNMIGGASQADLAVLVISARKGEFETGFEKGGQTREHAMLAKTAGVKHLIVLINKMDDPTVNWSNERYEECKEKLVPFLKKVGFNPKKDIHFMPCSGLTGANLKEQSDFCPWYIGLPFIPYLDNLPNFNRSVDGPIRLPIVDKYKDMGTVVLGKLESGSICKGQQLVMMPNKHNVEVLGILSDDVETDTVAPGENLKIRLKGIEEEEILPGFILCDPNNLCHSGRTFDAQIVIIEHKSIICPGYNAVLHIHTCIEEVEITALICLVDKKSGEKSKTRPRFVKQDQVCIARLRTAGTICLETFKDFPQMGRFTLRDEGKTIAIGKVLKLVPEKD
Sequence of GSPT1 (Q96SW2 whole entry, the tested form may be a part): as the sequence (Q96SW2 whole entry) above
Sequence of GSPT1 (Q16531 whole entry partner, the tested form may be a part): as the sequence (Q16531 whole entry partner) above

SMILES | IC50 [1] | DC50 [2] | Dmax [2] | DC50 [3] | Dmax [3] | Ratio of GSPT1 DC50/Cyclin E1 DC50 [3] | Emax [1]
COc1c(COC(=O)Nc2ccc(Oc3c(F)cccc3F)cc2)ccc2c1C(=O)N(C1CCC(=O)NC1=O)C2 (stereo not shown) [Example 112, [2-(2,6-dioxopiperidin-3-yl)-4-methoxy-3-oxo-2,3-dihydro-1H-isoindol-5-yl]methyl N-[4-(2,6-difluorophenoxy)phenyl]carbamate] | 46 nM | > 14000 nM | 26% | 226 nM | 105% | >62 | 115%
COc1cc(Oc2ccc(F)c(F)c2)ccc1NC(=O)OCc1ccc2c(c1OC)C(=O)N(C1CCC(=O)NC1=O)C2 (stereo not shown) [Example 47, [2-(2,6-dioxopiperidin-3-yl)-4-methoxy-3-oxo-2,3-dihydro-1H-isoindol-5-yl]methyl N-[4-(3,4-difluorophenoxy)-2-methoxyphenyl]carbamate] | 361 nM | > 14000 nM | 20% | 320 nM | 101% | >44 | 107%
COc1c(COC(=O)Nc2ccc(Oc3cc(F)c(F)cc3C)cc2)ccc2c1C(=O)N(C1CCC(=O)NC1=O)C2 (stereo not shown) [Example 78, [2-(2,6-dioxopiperidin-3-yl)-4-methoxy-3-oxo-2,3-dihydro-1H-isoindol-5-yl]methyl N-[4-(4,5-difluoro-2-methylphenoxy)phenyl]carbamate] | 165 nM | > 14000 nM | 2% | 316 nM | 113% | >44 | 126%
COc1c(COC(=O)Nc2ccc(Oc3cccc(F)c3)cc2C)ccc2c1C(=O)N(C1CCC(=O)NC1=O)C2 (stereo not shown) [Example 39, [2-(2,6-dioxopiperidin-3-yl)-4-methoxy-3-oxo-2,3-dihydro-1H-isoindol-5-yl]methyl N-[4-(3-fluorophenoxy)-2-methylphenyl]carbamate] | 127 nM | > 14000 nM | 20% | 103 nM | 108% | >136 | 111%

More lines, main results first:

IC50 [1] | DC50 [2] | Dmax [2] | DC50 [3] | Dmax [3] | Ratio of GSPT1 DC50/Cyclin E1 DC50 [3] | SMILES | Emax [1]
23 nM | > 14000 nM | 4% | 106 nM | 103% | >133 | O=C1CCC(N2Cc3ccc(COC(=O)Nc4ccc(Oc5ccc(F)cc5)cc4)c(O[C@@H]4CCCOC4)c3C2=O)C(=O)N1 (stereo partly drawn) [Example 144, [2-(2,6-dioxopiperidin-3-yl)-4-[(3R)-oxan-3-yloxy]-3-oxo-2,3-dihydro-1H-isoindol-5-yl]methyl N-[4-(4-fluorophenoxy)phenyl]carbamate] | 145%
95 nM | > 14000 nM | 27% | 87 nM | 108% | >160 | O=C1CCC(N2Cc3ccc(COC(=O)Nc4ccc(Oc5ccc(F)c(F)c5)cc4)c(O[C@H]4CC[C@H](O)CC4)c3C2=O)C(=O)N1 (stereo partly drawn) [Example 166, [2-(2,6-dioxopiperidin-3-yl)-3-oxo-4-{[(1R,4R)-4-hydroxycyclohexyl]oxy}-2,3-dihydro-1H-isoindol-5-yl]methyl N-[4-(3,4-difluorophenoxy)phenyl]carbamate] | 134%
42 nM | > 14000 nM | 10% | 224 nM | 104% | >62 | CC(=O)N1CCC(Oc2c(COC(=O)Nc3ccc(Oc4ccc(F)c(F)c4)cc3)ccc3c2C(=O)N(C2CCC(=O)NC2=O)C3)CC1 (stereo not shown) [Example 179, {4-[(1-acetylpiperidin-4-yl)oxy]-2-(2,6-dioxopiperidin-3-yl)-3-oxo-2,3-dihydro-1H-isoindol-5-yl}methyl N-[4-(3,4-difluorophenoxy)phenyl]carbamate] | 140%
